Like-named read-outs stand apart in the source and are kept apart here.
Experiments:
[1] = Pharmacokinetics of intraperitoneal or intravenous injection in CD1 mice; type: in vivo; conditions: for Conc. (ng/mL) Mouse 1 / Conc. (ng/mL) Mouse 2 / Conc. (ng/mL) Mouse 3 / concentration at 0.25 h / concentration at 0.5 h / concentration at 1 h / concentration at 2 h / concentration at 4 h / concentration at 8 h / concentration at 0.033 h / concentration at 0.083 h: CD1 mice plasma; for concentration at 0.25 h / concentration at 0.5 h / concentration at 1 h / concentration at 2 h / concentration at 4 h / concentration at 8 h / AUC(0-t) / half-life / concentration at 0.033 h / concentration at 0.083 h: male, CD1, mouse, plasma
Method in brief: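 Male CD1 mice, 6-8 weeks old, 3 per group, dosed IV (5 s injection; 10% HP-b-CD, 40 mM sodium acetate, 40 mM NaCl, pH 4.5) or IP (5% EtOH, 5% Solutol HS15 in D5W). Serial dorsal metatarsal vein blood, terminal heart puncture; plasma analysed by LC/MS/MS after acetonitrile precipitation, calibration 1-2000 ng/mL.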

PPB = type: in vitro ADME; conditions: plasma
[2] = ip, 10 mg/kg, IP 10 mg/kg, read-out: Conc. (ng/mL) Mouse 1
[3] = ip, 10 mg/kg, IP 10 mg/kg, read-out: Conc. (ng/mL) Mouse 2
[4] = ip, 10 mg/kg, IP 10 mg/kg, read-out: Conc. (ng/mL) Mouse 3
[5] = ip, 10 mg/kg, IP 10 mg/kg, read-out: Mean
[6] = iv, 1 mg/kg, IV 1.0 mg/kg, read-out: Conc. (ng/mL) Mouse 1
[7] = iv, 1 mg/kg, IV 1.0 mg/kg, read-out: Conc. (ng/mL) Mouse 2
[8] = iv, 1 mg/kg, IV 1.0 mg/kg, read-out: Conc. (ng/mL) Mouse 3
[9] = iv, 1 mg/kg, IV 1.0 mg/kg, read-out: Mean

Cc1ncsc1-c1ccc(CNC(=O)[C@@H]2C[C@@H](O)CN2C(=O)[C@@H](NC(=O)COCCCOc2ccc(Nc3ncc(C(F)(F)F)c(NCc4cccc(N(C)S(C)(=O)=O)c4)n3)cc2)C(C)(C)C)cc1 [Compound 101, (2S,4R)-1-((S)-3,3-dimethyl-2-(2-(3-(4-((4-((3-(N-methylmethylsulfonamido)benzyl)amino)-5-(trifluoromethyl)pyrimidin-2-yl)amino)phenoxy)propoxy)acetamido)butanoyl)-4-hydroxy-N-(4-(4-methylthiazol-5-yl)benzyl)pyrrolidine-2-carboxamide]
Conc. (ng/mL) Mouse 1 ([1]; IP 10 mg/kg, 24 h): BLOQ
Conc. (ng/mL) Mouse 2 ([1]; IP 10 mg/kg, 24 h): BLOQ
Conc. (ng/mL) Mouse 3 ([1]; IP 10 mg/kg, 24 h): BLOQ
Conc. (ng/mL) Mouse 1 ([1]; IV 1.0 mg/kg, 4 h): BLOQ
Conc. (ng/mL) Mouse 3 ([1]; IV 1.0 mg/kg, 4 h): BLOQ
Conc. (ng/mL) Mouse 1 ([1]; IV 1.0 mg/kg, 8 h): BLOQ
Conc. (ng/mL) Mouse 2 ([1]; IV 1.0 mg/kg, 8 h): BLOQ
Conc. (ng/mL) Mouse 3 ([1]; IV 1.0 mg/kg, 8 h): BLOQ
Conc. (ng/mL) Mouse 1 ([1]; IV 1.0 mg/kg, 24 h): BLOQ
Conc. (ng/mL) Mouse 2 ([1]; IV 1.0 mg/kg, 24 h): BLOQ
Conc. (ng/mL) Mouse 3 ([1]; IV 1.0 mg/kg, 24 h): BLOQ
concentration at 0.25 h [1, 2]: 800 ng/mL
concentration at 0.25 h [1, 3]: 407 ng/mL
concentration at 0.25 h [1, 4]: 271 ng/mL
concentration at 0.25 h [1, 5]: 493 ng/mL
concentration at 0.5 h [1, 2]: 860 ng/mL
concentration at 0.5 h [1, 3]: 523 ng/mL
concentration at 0.5 h [1, 4]: 335 ng/mL
concentration at 0.5 h [1, 5]: 573 ng/mL
concentration at 1 h [1, 2]: 1040 ng/mL
concentration at 1 h [1, 3]: 1520 ng/mL
concentration at 1 h [1, 4]: 1780 ng/mL
concentration at 1 h [1, 5]: 1450 ng/mL
concentration at 2 h [1, 2]: 1630 ng/mL
concentration at 2 h [1, 3]: 1590 ng/mL
concentration at 2 h [1, 4]: 1180 ng/mL
concentration at 2 h [1, 5]: 1470 ng/mL
concentration at 4 h ([1]; ip, 10 mg/kg, IP 10 mg/kg, 4 h, read-out: Conc. (ng/mL) Mouse 1): 378 ng/mL
concentration at 4 h ([1]; ip, 10 mg/kg, IP 10 mg/kg, 4 h, read-out: Conc. (ng/mL) Mouse 2): 1090 ng/mL
concentration at 4 h ([1]; ip, 10 mg/kg, IP 10 mg/kg, 4 h, read-out: Conc. (ng/mL) Mouse 3): 1250 ng/mL
concentration at 4 h ([1]; ip, 10 mg/kg, IP 10 mg/kg, 4 h, read-out: Mean): 906 ng/mL
concentration at 8 h ([1]; ip, 10 mg/kg, IP 10 mg/kg, 8 h, read-out: Conc. (ng/mL) Mouse 1): 24.1 ng/mL
concentration at 8 h ([1]; ip, 10 mg/kg, IP 10 mg/kg, 8 h, read-out: Conc. (ng/mL) Mouse 2): 145 ng/mL
concentration at 8 h ([1]; ip, 10 mg/kg, IP 10 mg/kg, 8 h, read-out: Conc. (ng/mL) Mouse 3): 77.1 ng/mL
concentration at 8 h ([1]; ip, 10 mg/kg, IP 10 mg/kg, 8 h, read-out: Mean): 82 ng/mL
AUC(0-t) ([1]; ip, 10 mg/kg, read-out: AUClast (h * ng/mL) IP): 6500 ng·h/mL
half-life ([1]; ip, 10 mg/kg, read-out: T ½ (h) IP (converted)): 1.22 h
concentration at 0.033 h [1, 6]: 2100 ng/mL
concentration at 0.033 h [1, 7]: 1800 ng/mL
concentration at 0.033 h [1, 8]: 2310 ng/mL
concentration at 0.033 h [1, 9]: 2070 ng/mL
concentration at 0.083 h [1, 6]: 356 ng/mL
concentration at 0.083 h [1, 7]: 303 ng/mL
concentration at 0.083 h [1, 8]: 432 ng/mL
concentration at 0.083 h [1, 9]: 364 ng/mL
concentration at 0.25 h [1, 6]: 50.1 ng/mL
concentration at 0.25 h [1, 7]: 47.7 ng/mL
concentration at 0.25 h [1, 8]: 47 ng/mL
concentration at 0.25 h [1, 9]: 48.3 ng/mL
concentration at 0.5 h [1, 6]: 20.9 ng/mL
concentration at 0.5 h [1, 7]: 28.6 ng/mL
concentration at 0.5 h [1, 8]: 27.7 ng/mL
concentration at 0.5 h [1, 9]: 25.7 ng/mL
concentration at 1 h [1, 6]: 8.68 ng/mL
concentration at 1 h [1, 7]: 11.6 ng/mL
concentration at 1 h [1, 8]: 9.52 ng/mL
concentration at 1 h [1, 9]: 9.9 ng/mL
concentration at 2 h [1, 6]: 5.32 ng/mL
concentration at 2 h [1, 7]: 7.86 ng/mL
concentration at 2 h [1, 8]: 5.45 ng/mL
concentration at 2 h [1, 9]: 6.21 ng/mL
concentration at 4 h ([1]; iv, 1 mg/kg, IV 1.0 mg/kg, 4 h, read-out: Conc. (ng/mL) Mouse 2): 4.59 ng/mL
AUC(0-t) ([1]; iv, 1 mg/kg, read-out: AUClast (h * ng/mL) IV): 268 ng·h/mL
half-life ([1]; iv, 1 mg/kg, read-out: T ½ (h) IV (converted)): 1.26 h
fraction unbound (PPB): 0.0065

Reference: US20200038513A1, “MODULATORS OF FAK PROTEOLYSIS AND ASSOCIATED METHODS OF USE” (ARVINAS OPERATIONS, INC., priority 2018, published 2020)
